Measurements from ChEMBL document CHEMBL1127259, “Synthesis of RPR 100893, prototype of a new series of potent and selective non peptide NK1 antagonists : the triarylperhydroisoindolols” (Bioorg Med Chem Lett, 1994).

Species on record: Cavia porcellus
Assay: Tested for antagonism of the contractile effect on guinea pig ileum preparations
Format: functional
Settings: read-out: pA2 (converted)

In the case of `COc1ccccc1[C@H](C)C(=O)N1C[C@@H]2[C@H](C1)C(c1ccccc1)(c1ccccc1)CC[C@@]2(O)c1ccccc1OC` [DAPITANT], the Kb is reported as 8.91 nM.
